The values below come from the NIST ThermoML archive (doi:10.1021/acs.jced.9b00561).

Numbers after ± are expanded uncertainties.

This data set in a line: refractive index (Na D-line) (dimensionless); wn = mass fraction of the nth substance listed. The settings on record: 323.15 K, 101.3 kPa, Liquid, Standard Abbe refractometry.

On to `O=BOB([O-])OB([O-])OB=O.[Na+].[Na+]` [sodium tetraborate] + O, for which the refractive index (w1 = 0.0953) was 1.3477 ± 0.0004.
Take `[Cl-].[Na+]` [sodium chloride] + O: where the note is “w1 = 0.2683”, the refractive index is 1.3765 ± 0.0019.
Consider `[Cl-].[Li+]` [lithium chloride] + O, for which the refractive index (w1 = 0.4841) was found to be 1.439 ± 0.0018.

As a reminder, the refractive index is the speed of light in vacuum divided by its phase velocity in the sample.
